# Assay results: patent US7846708B2, “Method for increasing the survival of bacterial strains of the Rhizobium genus” (Consiglo Nazionale delle Richerch, priority 2005, dated 2010)
# Assays:
# [1] = tested on: Sinorhizobium meliloti strain 1021 cells; test: Cell resistance of Sinorhizobium meliloti cells to various stress conditions (colony counting after stress); assay type: cell-based
# Protocol: (§1) The number of colonies of not treated Sinorhizobium meliloti 1021 was compared to the one of the same strain treated with IAA (0.05 mM and 0.5 mM) two days after reaching the stationary phase of bacterial growth. The percentage value of the surviving cells was measured several days after treatment. Applied stresses were: pH 3 (acid stress): cells were incubated for 30 minutes and then plated; NaCl 0.5 M (high osmotic pressure): 3 hours incubation; UV light resistance: time was not determined but the UV dose was selected to reach an irradiation dosage of 100 J/m^2; treatment at high temperature 55° C.: cells were incubated for 5 minutes; treatment at low temperature (4° C.) cells were incubated for up to 60 days at 4° C.
# The author has assayed for the bacteria resistance to stresses such as low and high temperatures. For the resistance to high temperatures the cells were grown in exponential phase (optical density 0.6) and then incubated for 2 minutes at room temperature or at 55° C. and then plated.
# Sinorhizobium meliloti strain 1021 cells and its derivative RD64 overproducing IAA, were exposed to different stress conditions and the number of surviving cells counted by plating opportune dilutions on agar plates; after plates incubation at 30° C., the number of emerging colonies were counted (Table 1).
# As a control untreated cells were plated and the number of colonies was considered as 100% for that condition. Stress applied were: • 1) low pH, pH 3, treatment: 30 minutes; • 2) high osmotic pressure (0.5 M NaCl): 3 hours; • 3) UV irradiation were automatically set at 100 J/m^2 and cells were irradiate for less that 1 minute; • 4) High (55° C.) temperature treatment: 5 minutes. Results A) Expression of the Beta-glucuronidase Modulated by the Mutation in the Promoter-iaaMtms2 Sequence
# [2] = tested on: Sinorhizobium meliloti 1021; test: Growth and survival test in liquid minimal medium (colonies on agar plates after prolonged stationary phase); assay type: cell-based; conditions: for ability to generate colonies with respect to the reference strain (1021): FIG. 6; for increase of the ability to generate colonies: FIG. 7, 7 and 15 days after IAA addition
# Protocol: For the growth and survival tests the minimal medium was utilized. A culture of the various strains was kept in growth stationary phase for two days, then they were collected, properly diluted and plated at the various recommended periods of time so as to obtain about 100-1000 colonies per plate. For the strains to be treated with IAA, the addition (0.05 or 0.5 mM IAA) occurred after two days of growth in stationary phase, then the bacteria were diluted and plated.
# The author has evaluated the ability of S. meliloti 1021 to generate colonies on agar plates after prolonged incubation in growth medium. The formed colonies were counted on at least five plates and the experiment was repeated at least five times.
# as §1
# In fact, the following groups were compared: • Sm 1021; • Sm 1021 additioned with 0.5 mM IAA; • Sm 1021 additioned with 0.05 mM IAA; • Sm 1021 containing the wild promoter-iaaMtms2 construct (RD 64) • Sm 1021 containing the promoter-iaaMtms2 construct mutated in the −16/−14 GAC region (RD65); • Sm 1021 containing the promoter-iaaMtms2 construct mutated in the −48, 49, 51, 52 G region (RD66); • Sm 1021 containing the promoter-iaaMtms2 construct mutated in the −40-37 CCCC (RD67); b) Effect of Various IAA Concentrations on the Survival of Sinorhizobium Meliloti 1021
# In order to evaluate the effect of different IAA concentrations on the survival of Sinorhizobium meliloti 1021 the number of colonies generated on agar plates were evaluated (see FIG. 7). The utilized concentrations were 0.05; 0.2; 0.5; and 2 mM IAA. The inocula of the wild strain not treated with IAA were used as controls as well as the RD64 strain. The number of colonies of S.m. 1021 was arbitrarily set equal to 100%. The number of colonies generated after 7 and 15 days of growth after the IAA addition in the growth liquid medium was evaluated.
# [3] = tested on: Sinorhizobium meliloti 1021; test: Effect of dehydration on survival (vacuum-dried cells plated at increasing times); assay type: cell-based
# Protocol: A culture of the wild strain S. meliloti 1021, of the strain 64 and 66 were kept in growth stationary phase for three days, then they were dehydrated […] and plated at the various times shown in figure. Furthermore, a culture of the wild strain 1021 was subjected to analogous treatment, thereto 0.05 mM IAA were added after two days of growing in stationary phase, the stationary growth continued for a third day and then the bacteria were dehydrated and processed like the preceding samples.
# For the dehydration test (FIG. 8), the cells were grown until reaching the stationary phase and kept for 3 days in stationary phase. The cells were centrifuged at 4000 rpm for 15′, washed in water and counted on plates as live colonies. The cells were then diluted so as to be aliquoted in Eppendorf tubes at the concentration of 1:10000 for each sample and then vacuum-dried in Savant centrifuge. After 4, 8, 14 and 32 days, the aliquots were plated on TYR selective medium, the formed colonies were counted on at least three plates and the experiment was repeated at least three times.
# S. meliloti 1021 = test: Survival at low temperature (4° C.), colony counting; assay type: cell-based, Sinorhizobium meliloti; conditions: 0.5 mM IAA; after 45 and 60 days at 4° C.; FIG. 9
# Protocol: FIG. 9: Survival at 4° C. of wild type S. meliloti 1021 treated with IAA and of the strain RD64. The bacterial cells of the three analysed strains (wild type S.m. 1021, S.m. treated with 0.5 mM IAA and RD64) were grown until exponential phase, then plated and the plates were incubated at 4° C. for 15, 30, 45 and 60 days. Every 15 days, a plate group of each strain was transferred to 30° C. for one day and the colonies were counted.
# Furthermore, the author has assayed for the ability of the same strains to resist to prolonged incubations at low temperature (4° C.). The cells of the same three strains: Sm 1021, Sm 1021 treated with 0.5 mM IAA and the strain RD64, were grown until an optical density of 0.6, plated and incubated at 4° C. for periods of time variable up to two months.
structure (smiles),measurement,setting,value
"O=C(O)Cc1c[nH]c2ccccc12 [IAA, indole-3-acetic acid]","Survival (%), Osmotic shock (+0.5 M NaCl)","[1]; 0.5 M NaCl, 3 hours, unstressed cells = 100%, IAA added at 0.5 mM to 1021, strain 64 without addition",78 ± 1%
same,"Survival (%), Heat-shock (55° C.)","[1]; 55° C., 5 minutes, unstressed cells = 100%, IAA added at 0.5 mM to 1021, strain 64 without addition",0.196 ± 0.021%
same,"more resistant than the untreated 1021, high temperature","[1]; 55° C., relative to untreated 1021",10%
same,"Survival (%), UV-irradiation (100 J/m^2)","[1]; 100 J/m^2, unstressed cells = 100%, IAA added at 0.5 mM to 1021, strain 64 without addition",86 ± 1%
same,"more resistant than the untreated 1021, intense UV irradiation","[1]; UV irradiation, relative to untreated 1021",10%
same,colonies generated more than the control after heat shock,"[1]; heat shock, IAA at 0.05 mM as printed, relative to S.m. 1021",up to 20%
same,"more resistant than the untreated 1021, high osmotic solution","[1]; high osmotic solution, relative to untreated 1021",50%
same,"more resistant than the untreated 1021, very low pH","[1]; pH3, 30 minutes, relative to untreated 1021",100%
same,"Survival (%), Acid shock (pH 3.0)","[1]; pH 3, 30 minutes, unstressed cells = 100%, IAA added at 0.5 mM to 1021, strain 64 without addition",0.0023 ± 0.0006%
same,ability to generate colonies with respect to the reference strain (1021),[2]; 0.05 mM IAA added after two days in stationary phase,greater ability to generate colonies
same,increase of the ability to generate colonies,[2]; 0.2 mM IAA,effective to increase the ability to generate colonies
same,ability to generate colonies with respect to the reference strain (1021),[2]; 0.5 mM IAA added after two days in stationary phase,greater ability to generate colonies
same,increase of the ability to generate colonies,[2]; 0.5 mM IAA,effective to increase the ability to generate colonies
same,total increase in the number of live cells in liquid culture with respect to the wild strain,"[2]; purified IAA at 0.5 mM, after two growth weeks",at least 100%
same,increase of the survival of the bacterial cells under dehydration,"[3]; IAA at 0.05 mM, FIG. 8",up to 50%
same,"additional increase in the cellular survival of pelleted, dehydrated and plated cells","[3]; IAA purified at 0.05 mM, after two weeks",up to 40%
same,number of cells able to generate colonies after incubation at 4° C. with respect to the not treated strain,S. meliloti 1021,almost the double
